For three compounds, EC50 and IC50 results are on record in ChEMBL document CHEMBL1201862, “PubChem BioAssay data set” (2004).

Calls of active or inactive are those of the source.

Experiment [1] deals with Voltage-dependent T-type calcium channel subunit alpha-1H (Homo sapiens, UniProt O95180). Nature of the experiment: human CACNA1H calcium influx blockade – cell-based, synthetic library set 1, calcium flux (AID 493022). The class given is functional. On the technique in general: Calcium flux is commonly read through the fluorescence of an indicator in the cells.
Experiment [2] has as its target DNA dC->dU-editing enzyme APOBEC-3G (Homo sapiens, UniProt Q9HC16). The experiment is described as follows: Dose Response confirmation of small molecule APOBEC3G DNA Deaminase Inhibitors via a fluorescence-based single-stranded DNA deaminase assay. [Related pubchem assays (depositor defined):AID493012, AID493028]. In kind it is functional.
Experiment [3] addresses DNA dC->dU-editing enzyme APOBEC-3A (Homo sapiens, UniProt P31941). Nature of the experiment: A3A deaminase inhibition for selectivity – biochemical, dose response (AID 504722). In kind it is functional.
The target of experiment [4] is T1, Estrogen receptor beta (Homo sapiens, UniProt Q92731).
Experiment [5] deals with Envelope glycoprotein gp160 (Human immunodeficiency virus 1, UniProt Q6QLK5). Nature of the experiment: cell-free HIV fusion peptide-binding blockers – biochemical, uHTS, fluorescence dequenching, […] (AID 1986).
Experiment [6] can be described thus: viability loss of HPDE-C7K cells – cell-based, fluorescence, HTS, primary screen (AID 431). The following applies: Homo sapiens. In kind it is functional.
Experiment [7] in a line: Potency on glucagon-like peptide 1 release, dose-response in NCI-H716 cell line, half maximal inhibitory concentration (AID 1117344). In kind it is functional, cell-based.
Experiment [8] is described as follows: glucagon-like peptide-1 release potency in STC-1, concentration-response, half-maximal inhibitory concentration in the STC-1 line (AID 1117345). In kind it is functional, cell-based.
For another experiment, the target named is T2, Aminopeptidase N (Plasmodium falciparum FcB1/Columbia, UniProt O96935).
T2 sequence (O96935 whole entry): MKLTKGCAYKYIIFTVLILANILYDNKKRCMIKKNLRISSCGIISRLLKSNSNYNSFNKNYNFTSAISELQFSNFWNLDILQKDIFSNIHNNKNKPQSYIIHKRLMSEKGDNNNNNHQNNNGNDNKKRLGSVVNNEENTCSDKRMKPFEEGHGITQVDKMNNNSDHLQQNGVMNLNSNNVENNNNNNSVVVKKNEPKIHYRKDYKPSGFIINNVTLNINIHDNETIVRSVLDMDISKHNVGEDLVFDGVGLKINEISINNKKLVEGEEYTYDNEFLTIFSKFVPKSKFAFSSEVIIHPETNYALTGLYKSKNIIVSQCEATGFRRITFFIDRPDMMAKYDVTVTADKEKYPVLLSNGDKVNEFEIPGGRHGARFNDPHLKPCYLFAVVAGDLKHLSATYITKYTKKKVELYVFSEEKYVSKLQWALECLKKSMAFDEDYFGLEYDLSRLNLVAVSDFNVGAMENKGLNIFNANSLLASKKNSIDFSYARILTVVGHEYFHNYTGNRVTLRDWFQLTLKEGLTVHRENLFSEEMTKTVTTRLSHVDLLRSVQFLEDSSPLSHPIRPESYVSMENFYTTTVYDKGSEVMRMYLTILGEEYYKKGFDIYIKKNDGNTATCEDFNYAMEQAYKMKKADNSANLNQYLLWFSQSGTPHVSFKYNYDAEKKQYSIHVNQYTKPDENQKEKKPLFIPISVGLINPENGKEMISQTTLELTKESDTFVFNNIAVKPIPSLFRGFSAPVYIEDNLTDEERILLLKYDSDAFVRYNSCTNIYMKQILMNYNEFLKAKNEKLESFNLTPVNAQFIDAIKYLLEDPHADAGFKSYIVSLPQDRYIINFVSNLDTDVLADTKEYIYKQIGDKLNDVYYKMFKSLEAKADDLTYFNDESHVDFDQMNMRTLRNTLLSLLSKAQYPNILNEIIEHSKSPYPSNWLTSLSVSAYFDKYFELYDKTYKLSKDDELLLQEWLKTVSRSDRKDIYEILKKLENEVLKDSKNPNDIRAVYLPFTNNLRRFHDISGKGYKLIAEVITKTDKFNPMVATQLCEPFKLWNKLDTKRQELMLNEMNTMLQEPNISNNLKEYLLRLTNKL
The experiment is described as follows: malaria alanyl aminopeptidase activity blockers – biochemical, fluorogenic H-Leu-NHMec substrate, 1536-well (AID 1445). The arrangement: species or system Plasmodium falciparum 3D7, 3D7.

The nature of experiment [9]: RKO cell viability reduction, dose response, CellTiter-Glo luminescence (AID 1117322). In kind it is functional.
A short description of experiment [10]: rise of 2N DNA cells, HeLa – IC50, dose response (AID 1117349). The class given is functional, cell-based.
The nature of experiment [11]: HCT116 cell viability decrease, GSK3B pretreatment – CellTiter-Glo, IC50, dose response (AID 1117339). The class given is functional. The following applies: HCT-116.
The next experiment deals with Large T antigen (Simian virus 40, UniProt P03070). The experiment is described as follows: A confirmatory biochemical assay using the ADP-Hunter methodology, purified TAg, and ATP to quantify activity of synthesized compounds that inhibit the ATPase activity of Tag (3). [Related pubchem assays (depositor defined):AID1903, AID1909, AID2102, AID2501, AID2615, AID2775, AID435001, AID449729]. Set-up: species or system Betapolyomavirus macacae.

The target of experiment [12] is T1, Estrogen receptor beta. The experiment is described as follows: blockers of SRC-3 recruitment to ERβ – biochemical, ELISA, streptavidin-HRP readout, orthogonal assay, confirmation (AID 1060). (In an ELISA, binding on a coated surface is turned into a signal by an enzyme label.)
Experiment [13] can be described thus: rise of 4N DNA cells, HeLa – IC50, dose response (AID 1117351). In kind it is functional, cell-based.
Experiment [14] is described as follows: cytotoxicity toward HCT116 cells – cell-based, CellTiter-Glo luminescence, IC50, dose response (AID 1117332). In kind it is functional. The following applies: HCT-116. A general note: In ATP-based viability assays light output follows the ATP content of the culture.
The nature of experiment [15]: SNU-C1 cell viability reduction, dose response, CellTiter-Glo luminescence (AID 1117323). The class given is functional, cell-based.
A short description of experiment [16]: cytotoxicity toward Colo320 cells – cell-based, CellTiter-Glo luminescence, IC50, dose response (AID 1117334). The following applies: COLO 320. In kind it is functional.
The nature of experiment [17]: Reduced DLD-1 viability, concentration-response, CellTiter-Glo luminescence (AID 1117352). The class given is functional.
For experiment [18], the target named is Induced myeloid leukemia cell differentiation protein Mcl-1 (Homo sapiens, UniProt Q07820). The class given is functional.
Experiment [19] can be described thus: CellTiter-Glo luminescence survival assay, SW480 colon tumor line, concentration-response curve, half-maximal inhibitory concentration (AID 1117338). The class given is functional.
Experiment [20] is described as follows: HPDE-C7 pancreatic duct cell viability loss – fluorescence, HTS (AID 430). In kind it is functional, cell-based. The following applies: Homo sapiens.
Experiment [21] in a line: cytotoxicity toward HT-29 cells – cell-based, CellTiter-Glo luminescence, IC50, dose response (AID 1117330). In kind it is functional.
For experiment [22], the target named is T3, Calpain-2 catalytic subunit (Sus scrofa, UniProt P43367).
T3 sequence (P43367 whole entry): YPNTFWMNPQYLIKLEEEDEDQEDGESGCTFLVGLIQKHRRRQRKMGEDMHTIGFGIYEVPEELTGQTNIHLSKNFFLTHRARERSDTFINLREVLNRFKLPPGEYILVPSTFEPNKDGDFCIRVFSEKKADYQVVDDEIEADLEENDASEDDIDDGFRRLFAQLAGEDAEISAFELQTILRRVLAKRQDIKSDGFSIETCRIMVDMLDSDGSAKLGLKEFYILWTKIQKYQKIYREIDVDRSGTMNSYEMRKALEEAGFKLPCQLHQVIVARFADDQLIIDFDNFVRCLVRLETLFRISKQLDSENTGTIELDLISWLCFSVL
The experiment is described as follows: m-calpain protease blockers, concentration series – biochemical, fluorogenic peptide substrate, dose response (AID 1420). The class given is functional.

T1 sequence (Q92731 whole entry, the tested form may be a part): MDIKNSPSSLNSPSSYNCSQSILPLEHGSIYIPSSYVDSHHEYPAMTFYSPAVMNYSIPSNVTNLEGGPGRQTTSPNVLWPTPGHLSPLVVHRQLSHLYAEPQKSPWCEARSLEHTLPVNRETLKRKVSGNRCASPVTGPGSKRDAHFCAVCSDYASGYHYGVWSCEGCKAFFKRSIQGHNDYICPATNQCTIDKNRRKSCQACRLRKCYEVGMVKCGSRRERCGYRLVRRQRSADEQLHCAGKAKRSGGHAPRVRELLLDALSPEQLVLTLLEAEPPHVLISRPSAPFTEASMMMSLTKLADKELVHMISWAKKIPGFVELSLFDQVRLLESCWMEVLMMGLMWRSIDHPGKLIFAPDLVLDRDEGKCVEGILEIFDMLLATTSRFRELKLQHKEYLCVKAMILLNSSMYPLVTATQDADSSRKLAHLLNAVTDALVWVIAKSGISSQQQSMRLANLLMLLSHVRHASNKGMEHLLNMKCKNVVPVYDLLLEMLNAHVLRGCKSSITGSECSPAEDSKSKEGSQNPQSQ
Chain of Envelope glycoprotein gp160 (Q6QLK5 whole entry, the tested form may be a part): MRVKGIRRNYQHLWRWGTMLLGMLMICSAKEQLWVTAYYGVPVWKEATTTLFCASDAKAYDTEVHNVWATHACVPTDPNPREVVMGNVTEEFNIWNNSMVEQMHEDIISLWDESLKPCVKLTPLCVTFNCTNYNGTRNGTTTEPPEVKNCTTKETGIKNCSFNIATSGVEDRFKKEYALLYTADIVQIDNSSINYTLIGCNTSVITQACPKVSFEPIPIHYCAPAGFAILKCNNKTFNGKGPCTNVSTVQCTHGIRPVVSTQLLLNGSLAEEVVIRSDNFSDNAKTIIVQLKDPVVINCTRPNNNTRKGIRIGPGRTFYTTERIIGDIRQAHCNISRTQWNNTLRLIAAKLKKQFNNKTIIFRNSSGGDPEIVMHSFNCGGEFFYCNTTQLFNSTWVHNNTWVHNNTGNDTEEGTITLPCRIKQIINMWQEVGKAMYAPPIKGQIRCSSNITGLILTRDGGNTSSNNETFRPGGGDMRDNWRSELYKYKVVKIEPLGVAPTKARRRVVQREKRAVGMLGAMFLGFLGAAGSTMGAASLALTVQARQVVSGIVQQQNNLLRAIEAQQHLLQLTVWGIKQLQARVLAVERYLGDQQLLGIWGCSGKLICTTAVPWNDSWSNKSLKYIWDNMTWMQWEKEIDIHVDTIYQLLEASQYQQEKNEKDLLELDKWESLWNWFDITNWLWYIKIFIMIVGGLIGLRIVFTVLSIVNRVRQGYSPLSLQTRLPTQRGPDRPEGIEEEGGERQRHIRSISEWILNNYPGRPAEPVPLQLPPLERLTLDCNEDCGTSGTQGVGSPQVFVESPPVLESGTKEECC
Chain of DNA dC->dU-editing enzyme APOBEC-3A (P31941 whole entry): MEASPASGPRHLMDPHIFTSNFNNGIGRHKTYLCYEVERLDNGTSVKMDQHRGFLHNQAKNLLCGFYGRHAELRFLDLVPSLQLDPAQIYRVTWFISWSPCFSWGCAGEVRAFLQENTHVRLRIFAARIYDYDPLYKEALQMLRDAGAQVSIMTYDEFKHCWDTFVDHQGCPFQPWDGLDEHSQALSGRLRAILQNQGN
Chain of DNA dC->dU-editing enzyme APOBEC-3G (Q9HC16 whole entry): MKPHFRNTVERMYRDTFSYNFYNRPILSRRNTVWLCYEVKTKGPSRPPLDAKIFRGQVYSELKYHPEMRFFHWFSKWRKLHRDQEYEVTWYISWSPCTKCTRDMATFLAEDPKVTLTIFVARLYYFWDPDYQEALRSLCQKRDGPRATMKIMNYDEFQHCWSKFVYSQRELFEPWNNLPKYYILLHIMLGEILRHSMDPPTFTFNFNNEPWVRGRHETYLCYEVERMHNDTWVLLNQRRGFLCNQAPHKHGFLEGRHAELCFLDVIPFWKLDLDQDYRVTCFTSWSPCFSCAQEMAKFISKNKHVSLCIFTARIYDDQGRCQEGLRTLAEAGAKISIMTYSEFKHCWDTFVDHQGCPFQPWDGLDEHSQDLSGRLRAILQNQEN
Chain of Voltage-dependent T-type calcium channel subunit alpha-1H (O95180 whole entry): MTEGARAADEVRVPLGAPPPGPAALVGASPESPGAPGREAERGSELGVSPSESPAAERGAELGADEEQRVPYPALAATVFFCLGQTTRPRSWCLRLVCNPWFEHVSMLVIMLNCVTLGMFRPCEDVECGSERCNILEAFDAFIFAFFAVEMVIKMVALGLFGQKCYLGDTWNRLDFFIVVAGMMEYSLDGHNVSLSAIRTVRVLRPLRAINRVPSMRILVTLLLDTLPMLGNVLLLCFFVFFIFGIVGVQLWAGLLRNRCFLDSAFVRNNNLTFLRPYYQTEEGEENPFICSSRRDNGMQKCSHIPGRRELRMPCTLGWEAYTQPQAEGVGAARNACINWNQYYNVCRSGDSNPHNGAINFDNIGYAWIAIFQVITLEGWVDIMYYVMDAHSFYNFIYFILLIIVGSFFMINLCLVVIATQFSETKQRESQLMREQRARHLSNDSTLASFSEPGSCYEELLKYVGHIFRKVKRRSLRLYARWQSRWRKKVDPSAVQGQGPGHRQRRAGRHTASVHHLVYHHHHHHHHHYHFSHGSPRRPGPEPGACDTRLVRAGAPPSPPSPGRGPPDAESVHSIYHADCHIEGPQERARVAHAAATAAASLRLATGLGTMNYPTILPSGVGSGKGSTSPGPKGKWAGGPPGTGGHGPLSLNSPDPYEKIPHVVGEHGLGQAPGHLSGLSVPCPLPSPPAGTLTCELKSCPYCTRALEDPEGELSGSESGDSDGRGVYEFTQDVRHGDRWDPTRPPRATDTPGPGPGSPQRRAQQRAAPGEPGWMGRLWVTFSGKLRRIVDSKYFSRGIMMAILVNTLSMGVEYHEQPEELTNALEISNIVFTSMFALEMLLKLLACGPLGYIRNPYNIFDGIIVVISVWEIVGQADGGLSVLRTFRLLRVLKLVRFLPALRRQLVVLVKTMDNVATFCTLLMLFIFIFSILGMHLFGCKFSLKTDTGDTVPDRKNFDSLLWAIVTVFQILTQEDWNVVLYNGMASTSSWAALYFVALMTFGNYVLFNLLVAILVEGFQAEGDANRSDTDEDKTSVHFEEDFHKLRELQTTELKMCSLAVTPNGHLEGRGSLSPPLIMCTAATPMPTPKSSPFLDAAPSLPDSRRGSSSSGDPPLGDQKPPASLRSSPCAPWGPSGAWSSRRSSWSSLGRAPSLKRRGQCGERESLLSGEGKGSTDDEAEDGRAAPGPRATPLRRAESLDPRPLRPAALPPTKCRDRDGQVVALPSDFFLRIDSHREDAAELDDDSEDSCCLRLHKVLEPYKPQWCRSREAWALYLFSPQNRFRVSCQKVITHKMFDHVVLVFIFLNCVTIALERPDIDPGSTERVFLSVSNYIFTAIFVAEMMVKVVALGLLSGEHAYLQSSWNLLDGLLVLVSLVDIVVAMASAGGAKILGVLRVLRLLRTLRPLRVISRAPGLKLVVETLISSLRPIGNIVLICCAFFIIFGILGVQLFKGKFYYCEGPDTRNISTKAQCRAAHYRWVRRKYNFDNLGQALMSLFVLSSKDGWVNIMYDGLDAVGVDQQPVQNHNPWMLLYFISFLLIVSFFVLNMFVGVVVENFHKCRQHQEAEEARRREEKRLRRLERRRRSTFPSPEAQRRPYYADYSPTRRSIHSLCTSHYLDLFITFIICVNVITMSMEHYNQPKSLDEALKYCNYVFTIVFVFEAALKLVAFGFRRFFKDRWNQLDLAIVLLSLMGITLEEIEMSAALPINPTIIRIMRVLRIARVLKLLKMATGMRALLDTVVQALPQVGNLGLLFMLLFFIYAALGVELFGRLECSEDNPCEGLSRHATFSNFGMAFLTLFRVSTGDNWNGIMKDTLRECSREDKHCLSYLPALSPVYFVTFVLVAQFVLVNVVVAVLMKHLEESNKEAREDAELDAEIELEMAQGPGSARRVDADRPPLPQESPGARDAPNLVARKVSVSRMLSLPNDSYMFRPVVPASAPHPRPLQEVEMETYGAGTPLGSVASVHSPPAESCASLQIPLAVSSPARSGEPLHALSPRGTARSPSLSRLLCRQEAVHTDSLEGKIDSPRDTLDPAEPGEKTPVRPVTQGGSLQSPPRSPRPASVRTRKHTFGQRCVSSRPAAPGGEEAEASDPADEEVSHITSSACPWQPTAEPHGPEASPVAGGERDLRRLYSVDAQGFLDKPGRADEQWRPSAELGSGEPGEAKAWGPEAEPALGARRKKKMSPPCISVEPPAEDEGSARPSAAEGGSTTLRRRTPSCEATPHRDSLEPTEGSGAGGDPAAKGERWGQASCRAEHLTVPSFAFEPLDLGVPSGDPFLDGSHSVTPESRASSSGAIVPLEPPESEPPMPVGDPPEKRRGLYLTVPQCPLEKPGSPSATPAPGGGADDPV
Chain of Induced myeloid leukemia cell differentiation protein Mcl-1 (Q07820 whole entry): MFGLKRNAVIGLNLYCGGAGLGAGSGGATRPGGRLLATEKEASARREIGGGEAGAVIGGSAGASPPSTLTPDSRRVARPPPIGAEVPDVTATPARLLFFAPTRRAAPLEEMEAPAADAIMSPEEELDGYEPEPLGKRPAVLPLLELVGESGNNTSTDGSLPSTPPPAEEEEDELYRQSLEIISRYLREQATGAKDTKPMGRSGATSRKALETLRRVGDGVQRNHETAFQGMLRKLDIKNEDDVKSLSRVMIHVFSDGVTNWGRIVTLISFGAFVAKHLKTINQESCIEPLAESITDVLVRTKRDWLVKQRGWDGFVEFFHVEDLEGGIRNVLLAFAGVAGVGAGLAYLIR

For the compound `O=C(COc1ccc(F)cc1)Nc1nnc(-c2ccc3ccccc3c2)o1`, the EC50 in experiment [1] was 3.5 µM (active).

Take `Cc1ccc(-c2nnc(S)n2/N=C\c2ccco2)cc1`: the concentration for half-maximal inhibition (IC50) in experiment [2] was 2.86 µM (active); in [3] it was > 100 µM (inactive).

`Oc1c(Cl)cc(Cl)cc1Sc1cc(Cl)cc(Cl)c1O` [BITHIONOL]: the IC50 is 8.15 µM (active) at Estrogen receptor beta [4]; 6.16 µM (active) in [5]; 19.4 µM (inactive) in experiment [7]; > 20 µM (inactive) in experiment [8]; 42.9 µM (active) at Aminopeptidase N; 0.001 µM (active) in experiment [9]. For the same compound, the IC50 in experiment [10] was > 10 µM (inactive); in experiment [11] it was 0.001 µM (active); on Large T antigen, 35.7 µM (active); on Estrogen receptor beta [12] it was > 109 µM (not active); in experiment [13], > 10 µM (inactive); in experiment [14], 0.001 µM (active). Further, the 50% inhibitory concentration (IC50) was 0.00867 µM (active) in [15]; 0.015 µM (active) in experiment [16]; 0.001 µM (active) in experiment [17]; 1.9 µM (active) in experiment [18]; 0.001 µM (active) in [19]; 0.996 µM (active) in experiment [21]. The IC50 in [22] is recorded as 4.75 µM (not active). For the same compound, the values for the EC50 in experiment [6] and in experiment [20] were 1.34 µM (active) and 1.21 µM (active), respectively.

By EC50 is commonly meant the concentration at which the effect is half-maximal. In general, IC50 refers to the midpoint of a concentration-inhibition curve.
